We go through 1 molecule from US9980967B1, “Method for overcoming drug resistance of EGFR mutation and cancerous stemness of human non-small cell lung carcinoma” (NATIONAL CHIAO TUNG UNIVERSITY, priority 2017, dated 2018).

In one experiment the test system is PLC26 cells. In words: Annexin V/PI apoptosis flow cytometry in PLC26 cells. The experiment is classed as cell-based, human. The following applies: 30 μM for 24 hours. On the procedure: At the end of treatment, apoptosis was measured by Annexin V-PI staining using flow cytometry analysis. The population of Annexin V+/PI− cells represents cells undergoing early apoptosis (low right), whereas the fraction of Annexin V+/PI+ cell are those undergoing late apoptosis (upper right).
We have further investigated the effect of SP101 in PLC26 lung cancer cells separated from the pleural effusion of a clinical lung cancer patient. To compare the cell viability of SP101 and Gefitinib in PLC26 cells, the cells were treated with 0˜40 μM SP101 or Gefitinib for 24 hours, and analyzed by MTT assays. Please refer to FIG. 21. […] The apoptosis levels of SP101 in PLC26 cells were analyzed by Annexin V and PI staining. The PLC26 cells were trypsinized and then incubated with propidium iodide (5 μl) and Annexin V-FITC (5 μl) at room temperature for 5 mins before flow cytometry. Please refer to FIG. 22.

The next experiment relates to A549 cells. In words: Annexin V/PI apoptosis flow cytometry in A549 cells. The experiment is classed as cell-based, human. The note with it: 30 μM for 24 hours. On the procedure:
At the end of treatment, apoptosis was measured by Annexin VPI staining using flow cytometry analysis. The population of Annexin V+/PI− cells represents cells undergoing early apoptosis (low right), whereas the fraction of Annexin V+/PI+ cell are those undergoing late apoptosis (upper right). The representative flow data were shown from one of three separate experiments with similar findings.
(§1) Please refer to FIG. 14. The expressions of phosphorylated EGFR and total EGFR proteins after treatment with SP101 (10˜40 μM for 24 hours) in the K-Ras mutation A549 cells were analyzed by Western blot. […] Please refer to FIG. 15. We further examined the apoptosis levels of SP101 in A549 cells by Annexin V and PI staining. The cells were trypsinized and then incubated with propidium iodide (5 μl) and Annexin V-FITC (5 μl) at room temperature for 5 min before flow cytometry.

Experiment [1] addresses T1, phosphorylated EGFR (Tyr1068) (Homo sapiens, UniProt P00533).
T1 construct: endogenous in cells; host or cells: A549 (ATCC CCL-185)
The experiment is described as follows: Western blot of phosphorylated EGFR and total EGFR in A549 cells. The experiment is classed as cell-based. The following applies: 10~40 μM for 24 hours. The procedure: At the end of treatment, the total protein extracts were prepared for Western blot analyses using specific antibodies, including rabbit anti-p-EGFR (Tyr1068), rabbit anti-EGFR and mouse anti-actin. Representative immunoblotting data were shown from one of three separate experiments with similar findings. Actin was an internal control protein.
as §1

The next experiment relates to A549-ON cells. The experiment is described as follows: Annexin V/PI apoptosis flow cytometry in A549-ON cells. The experiment is classed as cell-based, human. The following applies: 30 μM. On the procedure: At the end of treatment, apoptosis was measured by Annexin V-PI staining using flow cytometry analysis. The population of Annexin V+/PI− cells represents cells undergoing early apoptosis (low right), whereas the fraction of Annexin V+/PI+ cell are those undergoing late apoptosis (upper right). The representative flow data were shown from one of three separate experiments with similar findings.
The bar represents the mean±S.E.M. ***p<0.001 indicates significant difference between untreated and SP101 or Gefitinib treated samples.
We compared the apoptosis levels of SP101 and Gefitinib in cancer stem-like A549-ON cells by Annexin V and PI staining. Please refer to FIG. 19. […] Please refer to FIG. 20. The average of total apoptosis follows SP101 and Gefitinib in the A549-ON cells around 69.29% and 7.59%, respectively.

The subject of experiment [2] is H1975 cells with EGFR (T790M) mutation. In words: MTT cell viability assay in H1975 cells. The experiment is classed as cell-based, human. The note with it: 0~40 μM for 24 hours, re-cultured 2 days, compared with Gefitinib. The source says:
A549 (ATCC number: CCL-185) was a non-small cell lung carcinoma cell line which expressed wild type EGFR and with K-Ras mutation (G12S). H1975 (ATCC number: CRL-5908) was a non-small cell lung carcinoma cell line which expressed EGFR L858R/T790M mutation. Oct4 and Nanog overexpression in A549-ON presented the properties of cancer stem-like cells, as well as epithelial-mesenchymal transdifferentiation. PLC26 was lung cancer cells that separated from pleural effusion of a clinical lung cancer patient (IRB number: 103-011-E). A549-ON cells were cultured in DMEM medium. A549 and H1975 cells were maintained in RPMI-1640 medium. PLC26 cells were maintained in LHC-9 medium. DMEM and RPMI medium were supplemented with 10% fetal bovine serum (FBS), 100 units/ml penicillin, 100 μg/ml streptomycin and sodium bicarbonate. LHC-9 medium was supplemented with 5% FBS and 100 units/ml penicillin. These cells were cultured at 37° C. and 5% CO2 in a humidified incubator.
Please refer to FIG. 2. The H1975 cells were treated with 0˜40 μM of SP101 or Gefitinib for 24 hours. After treatment, the H1975 cells were re-cultured in fresh medium for 2 days. The cell viability was analyzed by MTT assays. The results were obtained from three independent experiments and the var represents the mean±S.E.M. ***p<0.001 indicates significant difference between Gefitinib and SP101 treated samples.

Experiment [3] addresses T2, phosphorylated EGFR (Tyr 1068) (Homo sapiens, UniProt P00533, L858R/T790M).
T2 construct: endogenous in cells; host or cells: H1975 (ATCC CRL-5908)
In words: Western blot of phosphorylated EGFR and total EGFR in H1975 cells. The following applies: 20~30 μM for 24 hours. The experiment is classed as cell-based. On the procedure: EGFR binding cognate ligands may lead to autophosphorylation of receptor tyrosine kinase and subsequent activation of signal transduction pathways of cell survival. Besides, aberrant tyrosine kinase activation increases proliferation and drug resistance of malignant cells. Please refer to FIG. 3. H1975 cells were treated with 0˜30 μM of SP101 for 24 hours. The total protein extracts were prepared for Western blot analyses using specific antibodies, including rabbit anti-p-EGFR (Tyr1068), rabbit anti-EGFR and mouse anti-actin. Representative immunoblotting data were shown from one of three separate experiments with similar findings. Actin was an internal control protein.

In experiment [4] the test system is Survivin and cleaved Caspase 3 in xenograft tumor tissues. The experiment is described as follows: Western blot and IHC of Survivin and cleaved Caspase 3 in xenograft tumor tissues. The experiment is classed as in vivo, nude mice. The source says:
FIG. 11 is a result of IHC immunohistochemistry staining showing that SP101 enhanced Caspase 3 protein level in NSCLC tumor tissues. Representative photographs were by IHC staining the active Caspase 3 proteins in the tumor sections. Positive cells were visualized by DAB staining (brown), counterstain with nuclei by hematoxylin.
Please refer to FIG. 10. The xenograft tumor tissues from each group were homogenized and the total lysates were subjected to Western blot analysis using specific antibodies, including rabbit anti-Survivin, rabbit anti-cleaved Caspase 3 and mouse anti-actin. Representative immunoblotting data were shown from one of two separate experiments with similar findings. Actin was an internal control protein. SP101 reduced Survivin protein level; meanwhile, SP101 induced the apoptotic protein level of cleaved Caspase 3.

Setting [5] is: xenograft tumor tissues, Western blot.

Regarding `CCCCCCCCCCCCOC(=O)CCC(=O)N1CCN(CCCOc2cc3c(Nc4ccc(F)c(Cl)c4)ncnc3cc2OC)CC1` [SP101, dodecyl 4-(4-(3-(4-(3-chloro-4-fluorophenylamino)-7-methoxyquinazolin-6-yloxy)propyl)piperazin-1-yl)-4-oxobutanoate], in the experiment on PLC26 cells, the “levels of Annexin V+/PI− cells (early apoptosis) and Annexin V+/PI+ cells (late apoptosis)” value (“levels of Annexin V+/PI− cells” below) was “significantly increased”. Besides, in the experiment with A549 cells, the “levels of Annexin V+/PI− cells” value is “significantly increased”. For the same molecule, in experiment [1], the “phosphorylated EGFR (Tyr1068) protein levels” value is “significantly reduced” and the “total EGFR protein levels” value is “did not alter”. In the experiment on A549-ON cells, the “late apoptosis cells, compared with Gefitinib” value is on record as “induced more late apoptosis cells than Gefitinib”; the “levels of Annexin V+/PI− cells” value is “significantly increased”. The “average of total apoptosis” value with A549-ON cells (early and late apoptosis, flow cytometry) is reported as “around 69.29%”. The cell viability inhibition result in experiment [2] is “significantly higher in the SP101 group than in the Gefitinib group”. In experiment [3], the “phosphorylated EGFR (Tyr 1068) protein level” value was “significantly reduced” and the “total EGFR protein level” value is given as “did not inhibit”. For the same molecule, in experiment [4] (setting [5]), the Survivin protein level entry is on record as “reduced”; the “apoptotic protein level of cleaved Caspase 3” value was “induced”; the “reduction of Survivin protein and increasing of cleaved Caspase 3 protein level, compared with Gefitinib” value is on record as “more potent”. Further, in experiment [4] (xenografted NSCLC tumors, IHC staining, compared with control and Gefitinib groups), the “active forms of Caspase 3 protein” value was “significantly induced”.
